Experimental findings from ChEMBL document CHEMBL3046943, “Synthesis, anti-inflammatory and antimicrobial evaluation of novel N1-(quinolin-4yl)ethane-1,2-diamine phenyl urea derivatives” (2013) are described below.

Molecules are shown by their SMILES. In brackets after ≈: the same amount, converted by molar mass. Activity calls are given as the source filed them. No cut-off for these calls is given here.

The subject of experiment [1] is Fusarium solani. Briefly: Antifungal activity against Fusarium solani MTCC 350 up to 200 ug/ml after 2 to 3 days by agar well diffusion method. It counts as functional, organism-based.
Experiment [2] has as its system Candida albicans. Briefly: Antifungal activity against Candida albicans MTCC 227 after 2 to 3 days by agar well diffusion method. It counts as functional.
In experiment [3] the test system is Bacillus subtilis. Kind of experiment: Antibacterial activity against Bacillus subtilis MTCC 441 up to 200 ug/ml after 24 hr by agar well diffusion method. In kind it is functional, organism-based.
Experiment [4] deals with Staphylococcus aureus. Kind of experiment: Antibacterial activity against Staphylococcus aureus MTCC 96 after 24 hr by agar well diffusion method. In kind it is functional. The note with it: MTCC 96, 24 h.
Experiment [5] has as its system Salmonella typhimurium. Kind of experiment: Antibacterial activity against Salmonella enterica subsp. enterica serovar Typhimurium MTCC 98 up to 200 ug/ml after 24 hr by agar well diffusion method. In kind it is functional, organism-based.
Experiment [6] relates to Escherichia coli. Briefly: Antibacterial activity against Escherichia coli MTCC 443 up to 200 ug/ml after 24 hr by agar well diffusion method. It counts as functional, organism-based.
In experiment [7] the test system is THP-1. Briefly: Anti-inflammatory activity in Homo sapiens (human) THP1 cells assessed as inhibition of LPS-induced IL6 production at 10 uM incubated for 30 min prior to LPS-challenge measured after 24 hr by ELISA relative to control. In kind it is functional.
Experiment [8] deals with Aspergillus flavus. Briefly: Antifungal activity against Aspergillus flavus MTCC 277 up to 200 ug/ml after 2 to 3 days by agar well diffusion method. In kind it is functional, organism-based.
Experiment [9] has as its system THP-1. Briefly: Anti-inflammatory activity in Homo sapiens (human) THP1 cells assessed as inhibition of LPS-induced TNFalpha production at 10 uM incubated for 30 min prior to LPS-challenge measured after 24 hr by ELISA relative to control. It counts as functional.
Experiment [10] deals with Aspergillus niger. Kind of experiment: Antifungal activity against Aspergillus niger MTCC 281 up to 200 ug/ml after 2 to 3 days by agar well diffusion method. In kind it is functional, organism-based.
Experiment [11] concerns Aspergillus niger. Briefly: Antifungal activity against Aspergillus niger MTCC 281 after 2 to 3 days by agar well diffusion method. In kind it is functional.
In experiment [12] the test system is Candida albicans. Briefly: Ratio of miconazole MIC to compound MIC for Candida albicans MTCC 227. It counts as functional.
In experiment [13] the test system is Escherichia coli. Briefly: Antibacterial activity against Escherichia coli MTCC 443 after 24 hr by agar well diffusion method. In kind it is functional. The note with it: MTCC 443, 24 h.
The test system of experiment [14] is Fusarium solani. Briefly: Antifungal activity against Fusarium solani MTCC 350 after 2 to 3 days by agar well diffusion method. It counts as functional.
Experiment [15] deals with Aspergillus flavus. Kind of experiment: Antifungal activity against Aspergillus flavus MTCC 277 after 2 to 3 days by agar well diffusion method. It counts as functional.
Experiment [16] deals with Salmonella typhimurium. Briefly: Antibacterial activity against Salmonella enterica subsp. enterica serovar Typhimurium MTCC 98 after 24 hr by agar well diffusion method. In kind it is functional. The note with it: MTCC 98, 24 h.
Experiment [17] concerns Bacillus subtilis. Kind of experiment: Antibacterial activity against Bacillus subtilis MTCC 441 after 24 hr by agar well diffusion method. In kind it is functional. The settings on record: MTCC 441, 24 h.
Experiment [18] concerns Aspergillus flavus. Briefly: Ratio of miconazole MIC to compound MIC for Aspergillus flavus MTCC 277. It counts as functional.
Experiment [19] has as its system Staphylococcus aureus. Kind of experiment: Antibacterial activity against Staphylococcus aureus MTCC 96 up to 200 ug/ml after 24 hr by agar well diffusion method. In kind it is functional, organism-based.
The subject of experiment [20] is THP-1. Kind of experiment: Anti-inflammatory activity in Homo sapiens (human) THP1 cells assessed as inhibition of LPS-induced IL6 production at 1 uM incubated for 30 min prior to LPS-challenge measured after 24 hr by ELISA relative to control. It counts as functional.
Experiment [21] deals with THP-1. Kind of experiment: Anti-inflammatory activity in Homo sapiens (human) THP1 cells assessed as inhibition of LPS-induced TNFalpha production at 1 uM incubated for 30 min prior to LPS-challenge measured after 24 hr by ELISA relative to control. It counts as functional.
For experiment [22], the system named is Candida albicans. Briefly: Antifungal activity against Candida albicans MTCC 227 up to 200 ug/ml after 2 to 3 days by agar well diffusion method. It counts as functional, organism-based.

In the case of `O=C(NCCNc1ccnc2c(F)cc(F)cc12)Nc1ccc(OC(F)(F)F)cc1`, the outcome in [1], in [3], in [5], in [6], in experiment [8] and in experiment [10] was inactive. Also, the MIC in experiment [2] and in [4] was 90 µg/mL (≈ 211 µM) throughout. In addition, the inhibition at 10 µM in experiment [7] was 28%; in [9] it was 16%.
As to `O=C(NCCNc1ccnc2c(F)cc(F)cc12)Nc1ccccc1F`, the MIC came out at 15 µg/mL (≈ 41.6 µM) in experiment [2]; 20 µg/mL (≈ 55.5 µM) in [11]; 20 µg/mL (≈ 55.5 µM) in experiment [4]; 15 µg/mL (≈ 41.6 µM) in experiment [13]; 20 µg/mL (≈ 55.5 µM) in experiment [14]; 15 µg/mL (≈ 41.6 µM) in experiment [15]. Further, the MIC in experiment [16] and in experiment [17] was 20 µg/mL (≈ 55.5 µM) throughout. Further, the Ratio in [12] and in experiment [18] was 1.3 in each case. Also, the values for the inhibition at 10 µM in [7] and in [9] were 18% and 11%, respectively.
For the compound `Clc1ccc(COC(Cn2ccnc2)c2ccc(Cl)cc2Cl)c(Cl)c1` (stereo unspecified) [MICONAZOLE], the MIC is 20 µg/mL (≈ 48.1 µM) in experiment [2], 15 µg/mL (≈ 36 µM) in [11], 15 µg/mL (≈ 36 µM) in experiment [14] and 20 µg/mL (≈ 48.1 µM) in experiment [15].
As to `O=C(NCCNc1ccnc2c(F)cc(F)cc12)Nc1ccccc1OC(F)(F)F`, the MIC in [2] worked out at 80 µg/mL (≈ 188 µM); in experiment [11], 80 µg/mL (≈ 188 µM); in experiment [14] it was 90 µg/mL (≈ 211 µM); in experiment [15], 80 µg/mL (≈ 188 µM). Also, the result in experiment [3], in experiment [5], in experiment [6] and in experiment [19] was inactive. The inhibition at 10 µM in experiment [7] turned out to be 96%; in experiment [9], 78%.
In the case of `Cc1ccc(F)cc1NC(=O)NCCNc1ccnc2c(F)cc(F)cc12`, the MIC stood at 25 µg/mL (≈ 66.8 µM) in experiment [2]; 30 µg/mL (≈ 80.1 µM) in [11]; 25 µg/mL (≈ 66.8 µM) in experiment [4]; 25 µg/mL (≈ 66.8 µM) in experiment [13]; 20 µg/mL (≈ 53.4 µM) in [14]; 20 µg/mL (≈ 53.4 µM) in [15]. The MIC was 30 µg/mL (≈ 80.1 µM) in [16] and 20 µg/mL (≈ 53.4 µM) in experiment [17]. In addition, the inhibition at 10 µM in experiment [7] was determined as 40%; in [9] it was 28%.
With `Fc1cc(F)c2nccc(Cl)c2c1` [4-CHLORO-6,8-DIFLUOROQUINOLINE], the outcome in experiment [1], in [3], in experiment [5], in [6] and in experiment [19] was inactive. Moreover, the MIC in experiment [2], in experiment [11] and in [15] was 90 µg/mL (≈ 451 µM) throughout. The inhibition at 10 µM in experiment [7] and in experiment [9] was 0% in each case.
`O=C(NCCNc1ccnc2c(F)cc(F)cc12)Nc1ccc(C(F)(F)F)cc1`: the MIC in experiment [2] came out at 90 µg/mL (≈ 219 µM); in experiment [4], 75 µg/mL (≈ 183 µM); in [13] it was 90 µg/mL (≈ 219 µM); in experiment [14], 90 µg/mL (≈ 219 µM); in experiment [15] it was 90 µg/mL (≈ 219 µM); in [16], 90 µg/mL (≈ 219 µM). Further, the minimum inhibitory concentration (MIC) in experiment [17] turned out to be 90 µg/mL (≈ 219 µM). The inhibition at 10 µM in [7] was determined as 35%; in experiment [9] it was 23%. In addition, in experiment [10], the outcome was inactive.
`C[C@@H]1C[C@H]2[C@@H]3CCC4=CC(=O)C=C[C@]4(C)[C@@]3(F)[C@@H](O)C[C@]2(C)[C@@]1(O)C(=O)CO` [DEXAMETHASONE]: the inhibition at 1 µM in experiment [20] came to 86%; in experiment [21], 72%.
`O=C(NCCNc1ccnc2c(F)cc(F)cc12)Nc1ccccc1C(F)(F)F`: the MIC in experiment [2] was 15 µg/mL (≈ 36.6 µM); in experiment [11], 10 µg/mL (≈ 24.4 µM); in experiment [4] it was 15 µg/mL (≈ 36.6 µM); in experiment [13], 10 µg/mL (≈ 24.4 µM); in [14], 20 µg/mL (≈ 48.7 µM); in experiment [15], 25 µg/mL (≈ 60.9 µM). Moreover, the minimum inhibitory concentration (MIC) in experiment [16] was determined as 15 µg/mL (≈ 36.6 µM); in experiment [17], 10 µg/mL (≈ 24.4 µM). Further, the inhibition at 10 µM in experiment [7] was found to be 90%; in [9] it was 71%.
For `Cc1ccc(NC(=O)NCCNc2ccnc3c(F)cc(F)cc23)cc1C`, the minimum inhibitory concentration (MIC) in experiment [2] was 25 µg/mL (≈ 67.5 µM); in [11], 35 µg/mL (≈ 94.5 µM); in experiment [4], 40 µg/mL (≈ 108 µM); in experiment [13] it was 40 µg/mL (≈ 108 µM); in experiment [14], 20 µg/mL (≈ 54 µM); in experiment [15], 30 µg/mL (≈ 81 µM). Moreover, the MIC was determined as 35 µg/mL (≈ 94.5 µM) in experiment [16] and 30 µg/mL (≈ 81 µM) in experiment [17]. Moreover, the inhibition at 10 µM in experiment [7] worked out at 16%; in [9], 11%.
For `CC(C)c1ccc(NC(=O)NCCNc2ccnc3c(F)cc(F)cc23)cc1`, the MIC turned out to be 45 µg/mL (≈ 117 µM) in [2]; 35 µg/mL (≈ 91 µM) in [11]; 40 µg/mL (≈ 104 µM) in [4]; 40 µg/mL (≈ 104 µM) in [13]; 50 µg/mL (≈ 130 µM) in experiment [14]; 40 µg/mL (≈ 104 µM) in experiment [15]. Besides, the MIC in [16] came to 30 µg/mL (≈ 78 µM); in experiment [17], 35 µg/mL (≈ 91 µM). The inhibition at 10 µM came out at 82% in experiment [7] and 68% in [9].
As to `O=c1cc[nH]c2c(F)cc(F)cc12` [6,8-DIFLUOROQUINOLIN-4(1H)-ONE], the result in experiment [1], in experiment [3], in experiment [5], in experiment [6], in experiment [8] and in [10] was inactive. The outcome in experiment [19] was inactive. In experiment [2], this compound yielded an MIC of 90 µg/mL (≈ 497 µM). Moreover, the inhibition at 10 µM in [7] and in [9] was 0% throughout.
For `O=C(O)c1cn(C2CC2)c2cc(N3CCNCC3)c(F)cc2c1=O` [CIPROFLOXACIN], the MIC stood at 20 µg/mL (≈ 60.4 µM) in experiment [4], 15 µg/mL (≈ 45.3 µM) in experiment [13], 20 µg/mL (≈ 60.4 µM) in [16] and 15 µg/mL (≈ 45.3 µM) in [17].
As to `O=C(NCCNc1ccnc2c(F)cc(F)cc12)Nc1cccc(Cl)c1F`, the MIC in experiment [2] worked out at 40 µg/mL (≈ 101 µM); in experiment [11], 75 µg/mL (≈ 190 µM); in [4] it was 90 µg/mL (≈ 228 µM); in experiment [14], 60 µg/mL (≈ 152 µM); in experiment [15] it was 30 µg/mL (≈ 76 µM); in experiment [17] it was 90 µg/mL (≈ 228 µM). Also, the result in [5] was inactive. For the same compound, the inhibition at 10 µM in experiment [7] was determined as 27%; in experiment [9], 16%.
`O=C(NCCNc1ccnc2c(F)cc(F)cc12)Nc1cc(C(F)(F)F)ccc1Cl`: the MIC in experiment [2] was found to be 20 µg/mL (≈ 45 µM); in [11], 15 µg/mL (≈ 33.7 µM); in experiment [4] it was 25 µg/mL (≈ 56.2 µM); in [13], 20 µg/mL (≈ 45 µM); in [14], 20 µg/mL (≈ 45 µM); in experiment [15] it was 20 µg/mL (≈ 45 µM). Further, the figures for the MIC in [16] and in [17] were 15 µg/mL (≈ 33.7 µM) and 25 µg/mL (≈ 56.2 µM), respectively. The inhibition at 10 µM in [7] came out at 80%; in experiment [9] it was 61%.
In the case of `NCCNc1ccnc2c(F)cc(F)cc12`, the result in [1], in experiment [3], in experiment [5], in [6], in [8] and in experiment [10] was inactive. For the same compound, the outcome in experiment [19] and in [22] was inactive. Further, the inhibition at 10 µM in experiment [7] and in experiment [9] was 0% each time.
